In PubChem BioAssay AID248 (DTP/NCI, 2004):
Where “and” joins values, the source holds several entries; their conditions need not be identical. Equal values may be shown once. Inconclusive results and toxic doses are left out. Cut-off read from the data, not from the text of the source: active = T/C of 150% or more; inactive = T/C below 125%.

Test system: L1210 leukemia ip in BDF1 mice, survival T/C
Experiment: NCI In Vivo Anticancer Drug Screen. Data for tumor model L1210 Leukemia (intraperitoneal) in B6D2F1 (BDF1) mice
Conditions: endpoint: mean survival time, higher = longer survival
Method in brief: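 Tumor was transplanted into mice, which were then dosed with test compound or vehicle alone. Survival was recorded for each group, and the treated figure was expressed relative to the control figure.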

[1] = dose: 100.0 mg/kg/injection, schedule: Q01DX009 (ip), vehicle: saline with Tween-80
[2] = dose: 200.0 mg/kg/injection, schedule: Q01DX009 (ip), vehicle: saline with Tween-80
[3] = dose: 400.0 mg/kg/injection, schedule: Q01DX009 (ip), vehicle: saline with Tween-80
[4] = dose: 50.0 mg/kg/injection, schedule: Q01DX009 (ip), vehicle: saline with Tween-80
[5] = dose: 50.0 mg/kg/injection, schedule: Q04DX003 (ip), vehicle: saline with Tween-80
[6] = dose: 100.0 mg/kg/injection, schedule: Q04DX003 (ip), vehicle: saline with Tween-80
[7] = dose: 200.0 mg/kg/injection, schedule: Q04DX003 (ip), vehicle: saline with Tween-80
[8] = dose: 400.0 mg/kg/injection, schedule: Q04DX003 (ip), vehicle: saline with Tween-80
[9] = dose: 100.0 mg/kg/injection, schedule: Q04DX003 (ip), vehicle: Klucel (hydroxypropylcellulose) (HPC)
[10] = dose: 200.0 mg/kg/injection, schedule: Q04DX003 (ip), vehicle: Klucel (hydroxypropylcellulose) (HPC)
[11] = dose: 400.0 mg/kg/injection, schedule: Q04DX003 (ip), vehicle: Klucel (hydroxypropylcellulose) (HPC)
[12] = dose: 50.0 mg/kg/injection, schedule: Q01DX001 (ip), vehicle: saline
[13] = dose: 100.0 mg/kg/injection, schedule: Q01DX001 (ip), vehicle: saline
[14] = dose: 200.0 mg/kg/injection, schedule: Q01DX001 (ip), vehicle: saline
[15] = dose: 400.0 mg/kg/injection, schedule: Q01DX001 (ip), vehicle: saline

Measured: T/C

CCNc1nc(Cl)nc(N(CC)CC)n1
inactive: [1] 91 % of control | [2] 98 % of control | [3] 89 % of control

CCCCCCC1N(C)CCCN1C
inactive: dose: 25.0 mg/kg/injection, schedule: Q01DX009 (ip), vehicle: saline with Tween-80 98 % of control | dose: 25.0 mg/kg/injection, schedule: Q04DX003 (ip), vehicle: saline with Tween-80 100 % of control | [4] 94 % of control | [5] 98 % of control | [1] 86 % of control | [6] 100 % of control and 103 % of control

O=C1CCC(N2C(=O)C3C4CCC(O4)C3C2=O)C(=O)N1 (stereo unspecified)
inactive: dose: 100.0 mg/kg/injection, schedule: Q04DX002 (ip), vehicle: Klucel (hydroxypropylcellulose) (HPC) 103 % of control | [6] 96 % of control | dose: 200.0 mg/kg/injection, schedule: Q04DX002 (ip), vehicle: Klucel (hydroxypropylcellulose) (HPC) 113 % of control | [7] 100 % of control | dose: 400.0 mg/kg/injection, schedule: Q04DX002 (ip), vehicle: Klucel (hydroxypropylcellulose) (HPC) 103 % of control | [8] 96 % of control

O=[N+]([O-])c1c(Cl)cc(Cl)c([N+](=O)[O-])c1Cl
inactive: [9] 94 % of control | [10] 90 % of control | [11] 94 % of control

COc1ccc(OC(=O)CCCl)cc1
inactive: [4] 98 % of control | [5] 104 % of control | [1] 104 % of control | [6] 95 % of control | [2] 105 % of control | [7] 95 % of control | [3] 121 % of control | [8] 104 % of control

O=C(CCCC(=O)N/N=C/c1ccc(I)cc1)N/N=C\c1ccc(I)cc1
inactive: [12] 100 % of control | [13] 93 % of control | [14] 93 % of control | [15] 97 % of control

COC1CCC2(C)C(C)C(C)CC3OC32C1 (stereo unspecified)
inactive: [12] 95 % of control | [13] 101 % of control | [14] 95 % of control | [15] 104 % of control

CCCCOC(OCCCC)C(C)(C)CN(C)C
inactive: dose: 12.5 mg/kg/injection, schedule: Q04DX002 (ip), vehicle: saline 117 % of control | dose: 25.0 mg/kg/injection, schedule: Q04DX002 (ip), vehicle: saline 105 % of control | dose: 50.0 mg/kg/injection, schedule: Q04DX002 (ip), vehicle: saline 98 % of control

COc1ccc(OC)c(NC(=O)Oc2ccc(SC)cc2)c1
inactive: [9] 86 % of control | [10] 88 % of control | [11] 86 % of control

CCCCCCCC/C=C\CCCCCCCCOB(OCCCCCCCC/C=C/CCCCCCCC)OCCCCCCCC/C=C/CCCCCCCC
inactive: dose: 50.0 mg/kg/injection, schedule: Q01DX001 (ip), vehicle: carboxymethylcellulose (CMC) 96 % of control | dose: 100.0 mg/kg/injection, schedule: Q01DX001 (ip), vehicle: carboxymethylcellulose (CMC) 105 % of control | dose: 200.0 mg/kg/injection, schedule: Q01DX001 (ip), vehicle: carboxymethylcellulose (CMC) 105 % of control | dose: 400.0 mg/kg/injection, schedule: Q01DX001 (ip), vehicle: carboxymethylcellulose (CMC) 102 % of control

CC1(C)N=CN=C(N)N1c1ccc(CCC(=O)Nc2ccc(S(=O)(=O)F)cc2)c(Cl)c1
inactive: [6] 114 % of control | [7] 112 % of control | [8] 109 % of control

NC1CCC(OC(=O)C23CC4CC(CC(C4)C2)C3)CC1 (stereo unspecified)
inactive: dose: 100.0 mg/kg/injection, schedule: Q01DX001 (ip), vehicle: saline with Tween-80 94 % of control

Cc1cc(=O)c2ccccc2[nH]1
inactive: dose: 25.0 mg/kg/injection, schedule: Q04DX003 (ip), vehicle: saline 94 % of control | dose: 50.0 mg/kg/injection, schedule: Q04DX003 (ip), vehicle: saline 100 % of control | dose: 100.0 mg/kg/injection, schedule: Q04DX003 (ip), vehicle: saline 94 % of control and 96 % of control
